These results are taken from patent US20250230156A1, “CRYSTAL FORM OF ALLYL-CONTAINING METHYLPYRIDOPYRIMIDINE COMPOUND” (MEDSHINE DISCOVERY INC., priority 2022, published 2025).

One test has as its target T1, KRAS (G12C) and SOS1 (Homo sapiens, UniProt Q07889).
T1 sequence (Q07889 564-1049): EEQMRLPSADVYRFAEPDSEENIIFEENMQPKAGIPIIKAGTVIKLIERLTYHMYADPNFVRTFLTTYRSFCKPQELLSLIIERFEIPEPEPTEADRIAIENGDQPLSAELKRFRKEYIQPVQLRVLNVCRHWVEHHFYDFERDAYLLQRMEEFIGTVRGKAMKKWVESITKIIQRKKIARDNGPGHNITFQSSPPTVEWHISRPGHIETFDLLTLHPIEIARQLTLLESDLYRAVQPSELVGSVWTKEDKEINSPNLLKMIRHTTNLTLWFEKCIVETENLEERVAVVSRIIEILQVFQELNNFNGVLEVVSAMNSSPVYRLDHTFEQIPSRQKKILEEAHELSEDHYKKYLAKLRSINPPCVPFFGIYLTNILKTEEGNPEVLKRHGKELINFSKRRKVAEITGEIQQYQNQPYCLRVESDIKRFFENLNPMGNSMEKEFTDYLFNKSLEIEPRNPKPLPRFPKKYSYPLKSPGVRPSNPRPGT
Description: KRAS (G12C) and SOS1 binding experiment (HTRF). The following applies: SOS1 exchange domain (564-1049), 25° C. for 60 min, read-out: KRAS (G12C) and SOS1 binding inhibitory activity IC50. As for the experimental part:
The multi-functional microplate reader Nivo5 was purchased from PerkinElmer.
Preparation method: 4-hydroxyethylpiperazine ethyl sulfonate (Hepes): 5 mM; sodium chloride (NaCl): 150 mM; ethylenediaminetetraacetic acid (EDTA): 10 mM, CO-630 (Igepal): 0.0025%, potassium fluoride (KF): 100 mM; dithiothreitol (DTT): 1 mM; and bovine serum albumin (BSA): 0.05%.
1) The test compound was diluted five-fold using DMSO with a multi-channel pipette until the 8th concentration was achieved, starting from 1 mM and ending at 0.064 μM.
2) The various gradients of the test compound were diluted with 1 buffer to form working solutions containing 2% DMSO. 5 μL of each working solution was then dispensed into the corresponding wells, with a concentration gradient ranging from 20 μM to 0.00128 nM. Duplicate well experiment was set up for each concentration. Following this, the plate was centrifuged at 1000 rpm for 1 min.
3) A mixed working solution containing KRAS (G12C) at a concentration of 200 nM and Mab Anti GST-Eu cryptate at a concentration of […] was prepared using 1× buffer. […]
4) A mixed working solution containing SOS1 at a concentration of 80 nM and Mab Anti 6HIS-XL665 at a concentration of […] was prepared using 1× buffer. […] After the reaction was completed, the HTRF was read using a multi-label analyzer. […]

Test [1] relates to p-ERK in DLD-1 cells (KRAS G13D mutation). Description: pERK expression levels in DLD-1 cells using HTRF. The format is cell-based. The following applies: Homo sapiens, 1.5 h compound incubation, read-out: Inhibitory activity against p-ERK in DLD-1 cells IC50. On the procedure: The phosphorylation level of ERK protein in DLD-1 cells with KRAS G13D mutation was detected by the Homogeneous Time-Resolved Fluorescence (HTRF) method, and the IC50 and IC90 values of compounds are employed as indicators to evaluate the inhibitory activity of these compounds towards ERK phosphorylation within the RAS signaling pathway.
1) DLD-1 cells (50,000 cells/well) were seeded into a 96-well plate, and each well was filled with 90 μL of RPMI-1640 medium (10% fetal bovine serum), and then placed in a 37° C., 5% carbon dioxide incubator for overnight culture.
10 μL of DMSO-cell culture medium mixture were added to the solvent control and positive control, with a final DMSO concentration of 0.25%. The 96-well cell plate was then returned to the incubator for 1.5 h of culture.
4) The cell supernatant was removed, and 50 μL of 1× lysis buffer was immediately added, followed by shaking and incubation at room temperature for 30 min.
5) A pipette was used to blow and mix the solution evenly, and 16 μL of cell lysate was transferred from the 96-well plate to the HTRF 384-well detection plate.
6) 4 μL of pre-mixed antibody solution were added, the plate was sealed, and incubated at 4° C. The fluorescence emission intensities at 665 nm and 620 nm were detected using an HTRF plate reader. […]

In a further test the test system is H358 cells. Description: Anti-cell proliferation experiment of H358 cell 3D model (soft agar). The note with it: Homo sapiens, 336 h; NCI-H358, soft agar, 14 days co-incubation, Almar blue; read-out: Anti-proliferation inhibitory activity in H358 cell 3D model IC50. It counts as cell-based. As for the experimental part:
RPMI1640 medium, fetal bovine serum, and penicillin/streptomycin antibiotics were purchased from Wisent, and low-melting agarose was purchased from Sigma. Almar blue reagent was purchased from Invitrogen. NCI-H358 cell line was purchased from Nanjing CoBioer Co., Ltd. Nivo multi-label analyzer (PerkinElmer).
H358 cells were seeded into a 96-well U-shaped plate. First, low-melting agarose was prepared into a 2% stock solution. Before use, the agarose stock solution was heated in a microwave oven to completely melt it, and then placed in a 42° C. water bath to keep the agarose in a liquid state. The gel was added to the serum-containing medium to prepare a gel with a concentration of 0.6% as the bottom layer gel, which was then dispensed into the 96-well U-shaped plate at 50 μL per well. After the bottom layer gel solidifies, 2% gel was added to the cell-containing medium to prepare a cell-containing top layer gel with a gel concentration of 0.4%. The cell density was […], and 75 μL was added to each well of the 96-well U-shaped plate with the bottom layer gel, resulting in a cell density of 3000 cells per well. […]
On the day of compound addition, 85 μL of liquid medium is added to the 96-well U-shaped plate with pre-seeded cells. […] The readings were taken using a multi-label analyzer. […]

In the case of `C=C[C@@H](Nc1nc(C)nc2cc(=O)n(C3(C(F)F)CC3)cc12)c1cccc(C(F)F)c1F` [Compounds as shown in formula (I)], the IC50 at KRAS (G12C) and SOS1 was found to be 13 nM; in test [1], 37 nM; with H358 cells it was 91 nM.
